Measured values published in ChEMBL document CHEMBL1201862, “PubChem BioAssay data set” (2004).
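A five-concentration, 48-hour dose response in 96-well plates underlies each endpoint, interpolated linearly between surrounding concentrations. GI50 = concentration required for 50% inhibition of growth.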 Active and inactive are the calls of the source. Cut-off read from the data, not from the text of the source: active = GI50 up to about 1.1 µM and inactive = higher.

Tests used:
Assay in all cases: DTP human tumour cell line panel, 48 h
RPMI-8226 = tested on: RPMI-8226
KM-20L2 = tested on: KM-20L2
NCI-H23 = tested on: NCI-H23
UACC-62 = tested on: UACC-62
HCC 2998 = tested on: HCC 2998
HOP-18 = tested on: HOP-18
DLD-1 = tested on: DLD-1
786-0 = tested on: 786-0
HOP-62 = tested on: HOP-62
NCI-H226 = tested on: NCI-H226
SF-539 = tested on: SF-539
ACHN = tested on: ACHN
UACC-257 = tested on: UACC-257
DMS-273 = tested on: DMS-273
NCI-H460 = tested on: NCI-H460
CAKI-1 = tested on: CAKI-1
EKVX = tested on: EKVX
IGROV-1 = tested on: IGROV-1
NCI-H522 = tested on: NCI-H522
HL-60 = tested on: HL-60
HOP-92 = tested on: HOP-92
SK-MEL-2 = tested on: SK-MEL-2
COLO 205 = tested on: COLO 205
SK-MEL-5 = tested on: SK-MEL-5
A498 = tested on: A498
A549 = tested on: A549
OVCAR-8 = tested on: OVCAR-8
K562 = tested on: K562
U-251 = tested on: U-251
HCT-116 = tested on: HCT-116
MOLT-4 = tested on: MOLT-4
DMS-114 = tested on: DMS-114
SNB-78 = tested on: SNB-78
OVCAR-3 = tested on: OVCAR-3
HT-29 = tested on: HT-29
TK-10 = tested on: TK-10
SF-295 = tested on: SF-295
Malme-3M = tested on: Malme-3M
OVCAR-5 = tested on: OVCAR-5
SNB-19 = tested on: SNB-19
SK-OV-3 = tested on: SK-OV-3
UO-31 = tested on: UO-31
CCRF-CEM = tested on: CCRF-CEM
SK-MEL-28 = tested on: SK-MEL-28
SF-268 = tested on: SF-268
RXF 631 = tested on: RXF 631
OVCAR-4 = tested on: OVCAR-4
KM12 = tested on: KM12
SN12C = tested on: SN12C
LOX IMVI = tested on: LOX IMVI
SW-620 = tested on: SW-620
SNB-75 = tested on: SNB-75
SR = tested on: SR
M14 = tested on: M14
HCT-15 = tested on: HCT-15
RXF 393 = tested on: RXF 393
LXFL 529 = tested on: LXFL 529
XF498 = tested on: XF498
M19-MEL = tested on: M19-MEL

With O=C1NC2(NC(=O)C1=O)Nc1ccccc1S2 the GI50 (RPMI-8226) was 21.6 µM (inactive), the GI50 (KM-20L2) was > 100 µM (inactive) and the GI50 (NCI-H23) was > 63 µM (inactive). The GI50 (UACC-62) was 23.8 µM (inactive), the GI50 (HCC 2998) was > 65.5 µM (inactive) and the GI50 (HOP-18) was > 100 µM (inactive). The GI50 (DLD-1) was 23.7 µM (inactive), the GI50 (786-0) was 21.7 µM (inactive) and the GI50 (HOP-62) was > 83.8 µM (inactive). The GI50 (NCI-H226) was > 58.6 µM (inactive), the GI50 (SF-539) was 27 µM (inactive) and the GI50 (ACHN) was 33.4 µM (inactive). For the same compound, the GI50 (UACC-257) was > 61.4 µM (inactive), the GI50 (DMS-273) was 42.1 µM (inactive) and the GI50 (NCI-H460) was 51.5 µM (inactive). The GI50 (CAKI-1) was 62.5 µM (inactive), the GI50 (EKVX) was > 100 µM (inactive) and the GI50 (IGROV-1) was > 92.7 µM (inactive). For the same compound, the GI50 (NCI-H522) was 22.1 µM (inactive), the GI50 (HL-60) was 21.6 µM (inactive) and the GI50 (HOP-92) was > 100 µM (inactive). For the same compound, the GI50 (SK-MEL-2) was 55.8 µM (inactive), the GI50 (COLO 205) was 21.6 µM (inactive) and the GI50 (SK-MEL-5) was 32.7 µM (inactive). For the same compound, the GI50 (A498) was 99.1 µM (inactive), the GI50 (A549) was > 60.5 µM (inactive) and the GI50 (OVCAR-8) was 58.7 µM (inactive). For the same compound, the GI50 (K562) was 39.8 µM (inactive), the GI50 (U-251) was 30.9 µM (inactive) and the GI50 (HCT-116) was 19.2 µM (inactive). The GI50 (MOLT-4) was 27.5 µM (inactive), the GI50 (DMS-114) was 28.4 µM (inactive) and the GI50 (SNB-78) was > 67.1 µM (inactive). The GI50 (OVCAR-3) was > 89.3 µM (inactive), the GI50 (HT-29) was 67 µM (inactive) and the GI50 (TK-10) was > 100 µM (inactive). The GI50 (SF-295) was 38.6 µM (inactive), the GI50 (Malme-3M) was 97.1 µM (inactive) and the GI50 (OVCAR-5) was > 100 µM (inactive). For the same compound, the GI50 (SNB-19) was > 100 µM (inactive), the GI50 (SK-OV-3) was > 100 µM (inactive) and the GI50 (UO-31) was 30.7 µM (inactive). For the same compound, the GI50 (CCRF-CEM) was 20.2 µM (inactive), the GI50 (SK-MEL-28) was 43.5 µM (inactive) and the GI50 (SF-268) was 24.8 µM (inactive). For the same compound, the GI50 (RXF 631) was 20 µM (inactive), the GI50 (OVCAR-4) was 40 µM (inactive) and the GI50 (KM12) was > 80.4 µM (inactive). For the same compound, the GI50 (SN12C) was 23.8 µM (inactive), the GI50 (LOX IMVI) was 18.9 µM (inactive) and the GI50 (SW-620) was 12.9 µM (inactive). The GI50 (SNB-75) was 68.7 µM (inactive), the GI50 (SR) was 24.5 µM (inactive) and the GI50 (M14) was 44.5 µM (inactive). For the same compound, the GI50 (HCT-15) was 33.7 µM, the GI50 (RXF 393) was > 54.6 µM (inactive) and the GI50 (LXFL 529) was 36.6 µM (inactive).
CCCCCCc1cc(C(=O)Nc2ccc(Cl)cc2)nc(S)n1 was tested, and the GI50 (RPMI-8226) was > 100 µM (inactive), the GI50 (NCI-H23) was > 100 µM (inactive) and the GI50 (DLD-1) was > 10 µM (inactive). For the same compound, the GI50 (XF498) was > 10 µM (inactive), the GI50 (HOP-62) was > 100 µM (inactive) and the GI50 (NCI-H226) was > 10 µM (inactive). For the same compound, the GI50 (SF-539) was > 100 µM (inactive), the GI50 (UACC-257) was > 100 µM (inactive) and the GI50 (NCI-H460) was > 10 µM (inactive). For the same compound, the GI50 (CAKI-1) was > 100 µM (inactive), the GI50 (EKVX) was > 100 µM (inactive) and the GI50 (IGROV-1) was > 100 µM (inactive). For the same compound, the GI50 (NCI-H522) was > 100 µM (inactive), the GI50 (HL-60) was > 100 µM (inactive) and the GI50 (HOP-92) was > 100 µM (inactive). The GI50 (SK-MEL-2) was > 100 µM (inactive), the GI50 (SK-MEL-5) was > 100 µM (inactive) and the GI50 (A549) was > 100 µM (inactive). For the same compound, the GI50 (K562) was > 100 µM (inactive), the GI50 (U-251) was > 100 µM (inactive) and the GI50 (MOLT-4) was > 100 µM (inactive). The GI50 (OVCAR-5) was 31.1 µM (inactive), the GI50 (SK-OV-3) was > 100 µM (inactive) and the GI50 (UO-31) was > 100 µM (inactive). The GI50 (CCRF-CEM) was > 100 µM (inactive), the GI50 (RXF 631) was > 100 µM (inactive) and the GI50 (OVCAR-4) was > 100 µM (inactive). The GI50 (KM12) was > 100 µM (inactive), the GI50 (SN12C) was > 100 µM (inactive) and the GI50 (SW-620) was > 100 µM (inactive). For the same compound, the GI50 (SR) was > 100 µM (inactive), the GI50 (M14) was > 100 µM (inactive) and the GI50 (RXF 393) was > 10 µM (inactive). For the same compound, the GI50 (LXFL 529) was > 100 µM (inactive).
With COc1cc2c(cc1OC)C(Cl)C(c1cc(OC)c(OC)c(OC)c1)=C2Cl (stereo not drawn) the GI50 (RPMI-8226) was 8.71 µM (inactive), the GI50 (KM-20L2) was 17.9 µM (inactive) and the GI50 (NCI-H23) was 19.3 µM (inactive). The GI50 (UACC-62) was 13.6 µM (inactive), the GI50 (HOP-18) was 14.7 µM (inactive) and the GI50 (DLD-1) was 19.4 µM (inactive). For the same compound, the GI50 (NCI-H226) was 18.7 µM (inactive), the GI50 (SF-539) was 13.8 µM (inactive) and the GI50 (ACHN) was 13.6 µM (inactive). For the same compound, the GI50 (DMS-273) was 16.5 µM (inactive), the GI50 (NCI-H460) was 14.4 µM (inactive) and the GI50 (CAKI-1) was 9.1 µM (inactive). For the same compound, the GI50 (EKVX) was 19.1 µM (inactive), the GI50 (IGROV-1) was 24 µM (inactive) and the GI50 (NCI-H522) was 6.01 µM (inactive). The GI50 (HL-60) was 13.6 µM (inactive), the GI50 (HOP-92) was 4.73 µM (inactive) and the GI50 (SK-MEL-2) was 15.5 µM (inactive). For the same compound, the GI50 (COLO 205) was 17.5 µM (inactive), the GI50 (SK-MEL-5) was 15.6 µM (inactive) and the GI50 (A498) was 22.3 µM (inactive). The GI50 (OVCAR-8) was 17.5 µM (inactive), the GI50 (K562) was 12.4 µM (inactive) and the GI50 (U-251) was 16.4 µM (inactive). The GI50 (MOLT-4) was 7.06 µM (inactive), the GI50 (DMS-114) was 10.8 µM (inactive) and the GI50 (SNB-78) was 12.2 µM (inactive). For the same compound, the GI50 (OVCAR-3) was 17.1 µM (inactive), the GI50 (HT-29) was 14.4 µM (inactive) and the GI50 (TK-10) was 20.3 µM (inactive). The GI50 (SF-295) was 15.2 µM (inactive), the GI50 (Malme-3M) was 14.1 µM (inactive) and the GI50 (SNB-19) was 14.3 µM (inactive). For the same compound, the GI50 (SK-OV-3) was 28.4 µM (inactive), the GI50 (UO-31) was 11 µM (inactive) and the GI50 (CCRF-CEM) was 4.67 µM (inactive). The GI50 (SK-MEL-28) was 16.4 µM (inactive), the GI50 (SF-268) was 16.6 µM (inactive) and the GI50 (RXF 631) was 18.8 µM (inactive). For the same compound, the GI50 (SN12C) was 13.9 µM (inactive), the GI50 (M19-MEL) was 14.8 µM (inactive) and the GI50 (LOX IMVI) was 13.1 µM (inactive). For the same compound, the GI50 (SW-620) was 18.8 µM (inactive), the GI50 (SNB-75) was 2.69 µM (inactive) and the GI50 (M14) was 17.2 µM (inactive). For the same compound, the GI50 (HCT-15) was 14.6 µM and the GI50 (LXFL 529) was 11.5 µM (inactive).
